From patent publication US10155756B2, “Pyrazolo[1,5-A]pyridine compounds and use thereof” (GUANGZHOU INSTITUTES OF BIOMEDICINE AND HEALTH, CHINESE …, priority 2014, dated 2018)
Values after ≈ are worked out from the molar mass of the structure shown.

Tested on: self-luminescent tuberculosis
Experiment: microbe, parasite or virus in culture
Assay type: cell-based
Settings: Mycobacterium tuberculosis, 72 h; read-out: MIClux

Row | Compound | MIC
1 | Cc1ccn2nc(C)c(C(=O)NCc3ccc(N4CCC(c5ccc(F)cc5)CC4)cc3)c2c1 [TJ830141, N-(4-(4-(4-fluorophenyl)piperidine-1-yl)benzyl)-2,5-dimethyl-pyrazolo [1,5-a] pyridine-3-carboxamide] | < 1 µg/mL
2 | CCc1nn2ccc(Cl)cc2c1C(=O)Nc1ccc(N2CCC(c3ccc(OC(F)(F)F)cc3)CC2)cc1 [TJ064819, 5-chloro-2-ethyl-N-(4-(4-(4-(trifluoromethoxy)phenyl)piperidine-1-yl)phenyl) pyrazolo [1,5-a] pyridine-3-carboxamide] | > 10 µg/mL
3 | CCc1nn2ccc(Cl)cc2c1C(=O)NC(C)(C)c1ccc(N2CCC(c3ccc(OC(F)(F)F)cc3)CC2)cc1 [TJ064987, 5-chloro-2-ethyl-N-(2-(4-(4-(4-(trifluoromethoxy)phenyl)piperidine-1-yl)phenyl)propane-2-substituted) pyrazolo [1,5-a] pyridine-3-carboxamide] | > 10 µg/mL
4 | CCCc1nn2ccc(Cl)cc2c1C(=O)NCc1ccc(N2CCC(c3ccc(OC(F)(F)F)cc3)CC2)cc1 [TJ830134] | < 1 µg/mL
5 | Cc1ccn2nc(C)c(C(=O)NCc3ccc(-c4ccc(OC(F)(F)F)cc4)s3)c2c1 [TJ830132, 2,5-dimethyl-N-((5-(4-(trifluoromethoxy)phenyl)thiophene-2-yl)methyl) pyrazolo [1,5-a] pyridine-3-carboxamide] | < 1 µg/mL
6 | CCc1nn2ccc(OC)cc2c1C(=O)NCc1ccc(N2CCC(c3ccc(OC(F)(F)F)cc3)CC2)cc1 [TJ064889, 5-methoxy-2-ethyl-N-(4-(4-(4-(trifluoromethoxy)phenyl)piperidine-1-substituted)benzyl) pyrazolo[1,5-a] pyridine-3-carboxamide] | < 1 µg/mL
7 | CCc1nn2ccc(Cl)cc2c1C(=O)NC(C)c1ccc(N2CCC(c3ccc(OC(F)(F)F)cc3)CC2)cc1 (centres unmarked) [TJ830070, 5-chloro-2-ethyl-N-(1-(4-(4-(4-(trifluoromethoxy)phenyl)piperidine-1-yl)phenyl)ethanol) pyrazolo [1,5-a] pyridine-3-carboxamide] | > 10 µg/mL
8 | Cc1ccn2nc(C)c(C(=O)NCc3ccc(-c4ccc(OC(F)(F)F)cc4)nc3)c2c1 [TJ830025, 2,5-dimethyl-N-((6-(4-(trifluoromethoxy)phenyl)pyridine-3-yl)methyl) pyrazolo [1,5-a] pyridine-3-carboxamide] | < 1 µg/mL
9 | Cc1ccn2nc(C)c(C(=O)NCc3ccc(C(C)(C)C)cc3)c2c1 [TJ830135, N-(4-(tert-butyl)benzyl)-2,5-dimethylpyrazolo [1,5-a] pyridine-3-carboxamide] | < 1 µg/mL
10 | COc1ccn2nc(C)c(C(=O)NCc3ccc(N4CCC(c5ccc(OC(F)(F)F)cc5)CC4)cc3)c2c1 [TJ830047, 5-methoxy-2-methyl-N-(4-(4-(4-(trifluoromethoxy)phenyl)piperidine-1-yl)benzyl) pyrazolo [1,5-a] pyridine-3-carboxamide] | < 1 µg/mL
11 | Cc1nn2ccc(C(C)C)cc2c1C(=O)NCc1ccc(N2CCC(c3ccc(OC(F)(F)F)cc3)CC2)cc1 [TJ830073, 5-isopropyl-2-methyl-N-(4-(4-(4-(trifluoromethoxy)phenyl)piperidine-1-yl)benzyl) pyrazolo [1,5-a] pyridine-3-carboxamide] | 1 to 10 µg/mL (≈ 1.82 to 18.2 µM)
12 | Cc1nn2cccc(C)c2c1C(=O)NCc1ccc(N2CCC(c3ccc(OC(F)(F)F)cc3)CC2)cc1 [TJ064872, 2,4-dimethyl-N-(4-(4-(4-(trifluoromethoxy)phenyl)piperidine-1-yl)benzyl) pyrazolo[1,5-a] pyridine-3-carboxamide] | > 10 µg/mL
13 | O=C(NCc1ccc(N2CCC(c3ccc(OC(F)(F)F)cc3)CC2)cc1)c1c(-c2ccccc2)nn2ccc(Cl)cc12 [TJ170386, 5-chloro-2-phenyl-N-(4-(4-(4-(trifluoromethoxy)phenyl)piperidine-1-yl)benzyl) pyrazolo [1,5-a] pyridine-3-carboxamide] | > 10 µg/mL
14 | Cc1nn2ccccc2c1C(=O)NCc1ccc(C(F)(F)F)cc1 [TJ830069] | 1 to 10 µg/mL (≈ 3 to 30 µM)
15 | Cc1nn2ccc(C(F)(F)F)cc2c1C(=O)NCc1ccc(N2CCC(c3ccc(OC(F)(F)F)cc3)CC2)cc1 [TJ064995, 5-trifluoromethyl-2-methyl-N-(4-(4-(4-(trifluoromethoxy)phenyl)piperidine-1-yl)benzyl) pyrazolo [1,5-a] pyridine-3-carboxamide] | 1 to 10 µg/mL (≈ 1.73 to 17.3 µM)
16 | Cc1ccn2nc(C)c(C(=O)NCc3ccc(Oc4ccc(F)cc4)cc3)c2c1 [TJ830147, N-(4-(4-fluorophenoxy)benzyl)-2,5-dimethylpyrazolo [1,5-a] pyridine-3-carboxamide] | < 1 µg/mL
17 | Cc1ccn2nc(C)c(C(=O)NCc3ccc(-c4ccc(OC(F)(F)F)cc4)cc3)c2c1 [TJ830151, 2,5-dimethyl-N-((4′-(trifluoromethoxy)-[1,1′-biphenyl]-4-yl)methyl) pyrazolo [1,5-a] pyridine-3-carboxamide] | < 1 µg/mL
18 | CCc1nn2ccc(C)cc2c1C(=O)NCc1ccc(N2CCC(c3ccc(OC(F)(F)F)cc3)CC2)cc1 [TJ830102, 5-methyl-2-ethyl-N-(4-(4-(4-(trifluoromethoxy)phenyl)piperidine-1-substituted)benzyl) pyrazolo [1,5-a] pyridine-3-carboxamide] | < 1 µg/mL
19 | O=C(NCc1ccc(N2CCC(c3ccc(OC(F)(F)F)cc3)CC2)cc1)c1cnn2ccc(Cl)cc12 [TJ170371, 5-chloro-N-(4-(4-(4-(trifluoromethoxy)phenyl)piperidine-1-yl)benzyl) pyrazolo [1,5-a] pyridine-3-carboxamide] | 1 to 10 µg/mL (≈ 1.89 to 18.9 µM)

Row | Compound | MIC
20 | CCc1nn2ccc(Cl)cc2c1C(=O)NCCc1ccc(N2CCC(c3ccc(OC(F)(F)F)cc3)CC2)cc1 [TJ830128, 5-chloro-2-ethyl-N-(4-(4-(4-(trifluoromethoxy)phenyl)piperidine-1-yl)phenethyl) pyrazolo [1,5-a] pyridine-3-carboxamide] | 1 to 10 µg/mL (≈ 1.75 to 17.5 µM)
21 | CCc1nn2ccc(Cl)cc2c1C(=O)NCc1cn(-c2ccc(OC(F)(F)F)cc2)nn1 [TJ064983] | > 10 µg/mL
22 | Cc1ccn2nc(C)c(C(=O)NCc3cnc(-c4ccc(OC(F)(F)F)cc4)nc3)c2c1 [TJ830150, 2,5-Dimethyl-N-((2-(4-(trifluoromethoxy)phenyl)pyrimidine-5-yl)methyl) pyrazolo [1,5-a] pyridine-3-carboxamide] | < 1 µg/mL
23 | Cc1ccn2nc(C)c(C(=O)NCc3ccc(Oc4ccc(OC(F)(F)F)cc4)cc3)c2c1 [TJ830153] | < 1 µg/mL
24 | Cc1ccn2nc(C)c(C(=O)NCc3ccc(N4CCC(C(F)(F)F)CC4)cc3)c2c1 [TJ830149, 2,5-dimethyl-N-(4-(4-(trifluoromethyl)piperidine-1-yl)benzyl) pyrazolo [1,5-a] pyridine-3-carboxamide] | < 1 µg/mL
25 | CCc1nn2ccc(Cl)cc2c1C(=O)NCc1ccc(F)cc1 [TJ4570004, 5-chloro-2-ethyl-N-(4-fluorobenzyl) pyrazolo [1,5-a] pyridine-3-carboxamide] | > 10 µg/mL
26 | COc1ccc(C2CCN(c3ccc(CNC(=O)c4c(C)nn5ccc(C)cc45)cc3)CC2)cc1 [TJ830140, N-(4-(4-(4-methoxyphenyl)piperidine-1-yl)benzyl)-2,5-dimethyl-pyrazolo [1,5-a] pyridine-3-carboxamide] | < 1 µg/mL
27 | Cc1nn2ccc(C(C)(C)C)cc2c1C(=O)NCc1ccc(N2CCC(c3ccc(OC(F)(F)F)cc3)CC2)cc1 [TJ830075, 5-tert-Butyl-2-methyl-N-(4-(4-(4-(trifluoromethoxy)phenyl)piperidine-1-substituted)benzyl) pyrazolo [1,5-a] pyridine-3-carboxamide] | > 10 µg/mL
28 | Cc1ccn2nc(C)c(C(=O)NCc3ccc(C(F)(F)F)cc3)c2c1 [TJ830072] | < 1 µg/mL
29 | Cc1nn2ccc(Br)cc2c1C(=O)NCc1ccc(N2CCC(c3ccc(OC(F)(F)F)cc3)CC2)cc1 [TJ830008, 5-bromo-2-methyl-N-(4-(4-(4-(trifluoromethoxy)phenyl)piperidine-1-yl)benzyl) pyrazolo [1,5-a] pyridine-3-carboxamide] | < 1 µg/mL
30 | Cc1ccc2c(C(=O)NCc3ccc(N4CCC(c5ccc(OC(F)(F)F)cc5)CC4)cc3)c(C)nn2c1 [TJ064854, 2,6-dimethyl-N-(4-(4-(4-(trifluoromethoxy)phenyl)piperidine-1-yl)benzyl) pyrazolo[1,5-a] pyridine-3-carboxamide] | < 1 µg/mL
31 | Cc1ccn2nc(C)c(C(=O)NCc3ccc(N4CCN(c5ccc(F)cc5)CC4)cc3)c2c1 [TJ830152, N-(4-(4-(4-fluorophenyl)piperazine-1-yl)benzyl)-2,5-dimethyl-pyrazolo [1,5-a] pyridine-3-carboxamide] | < 1 µg/mL
32 | CCc1nn2ccc(Cl)cc2c1C(=O)NCc1ccc(-c2ccc(OC(F)(F)F)cc2)nc1 [TJ830028, 5-chloro-2-ethyl-N-((6-(4-(trifluoromethoxy)phenyl)pyridine-3-yl)methyl) pyrazolo [1,5-a] pyridine-3-carboxamide] | < 1 µg/mL
33 | Cc1ccn2nc(C)c(C(=O)NCc3ccc(F)cc3)c2c1 [TJ4570006, N-(4-fluorobenzyl)-2,5-dimethylpyrazolo [1,5-a] pyridine-3-carboxamide] | 1 to 10 µg/mL (≈ 3.36 to 33.6 µM)
34 | CCc1ccn2nc(C)c(C(=O)NCc3ccc(N4CCC(c5ccc(OC(F)(F)F)cc5)CC4)cc3)c2c1 [TJ830082, 5-ethyl-2-methyl-N-(4-(4-(4-(trifluoromethoxy)phenyl)piperidine-1-substituted)benzyl) pyrazolo [1,5-a] pyridine-3-carboxamide] | < 1 µg/mL
35 | Cc1ccn2nc(C)c(C(=O)NCc3cn(-c4ccc(OC(F)(F)F)cc4)nn3)c2c1 [TJ830003] | > 10 µg/mL
36 | Cc1nn2c(C)cccc2c1C(=O)NCc1ccc(N2CCC(c3ccc(OC(F)(F)F)cc3)CC2)cc1 [TJ064851, 2,7-dimethyl-N-(4-(4-(4-(trifluoromethoxy)phenyl)piperidine-1-yl)benzyl) pyrazolo[1,5-a] pyridine-3-carboxamide] | 1 to 10 µg/mL (≈ 1.91 to 19.1 µM)
37 | CCc1nn2ccc(Cl)cc2c1C(=O)NCc1ccc(C(=O)OC)cc1 [TJ064814, 4-((5-chloro-2-ethylpyrazolo [1,5-a]pyridine-3-carboxamide)methyl) methyl benzoate] | 1 to 10 µg/mL (≈ 2.69 to 26.9 µM)
38 | CCc1nn2ccc(Cl)cc2c1C(=O)N(C)Cc1ccc(N2CCC(c3ccc(OC(F)(F)F)cc3)CC2)cc1 [TJ064985] | 1 to 10 µg/mL (≈ 1.75 to 17.5 µM)
